Assay results reported in patent US7037931B2, “CCK-1 receptor modulators” (Janssen Pharmaceutica N.V., priority 2002, dated 2006).

Compared with `COc1ccc(-n2nc(C[C@H](C(=O)[O-])c3cccc(C)c3)cc2-c2ccc(Cl)c(Cl)c2)cc1.[Na+]` (stereo in doubt) [Example 505], `CON(C)C(=O)c1ccc(Cl)c(Cl)c1` [Example 511, 3,4-Dichloro-N-methoxy-N-methyl-benzamide] is lower in melting point: 280 to 285 °C for the first, 39.5 to 43.2 °C for the second.

`COc1ccc(-n2nc(C[C@H](C(=O)[O-])c3cccc(C)c3)cc2-c2ccc(Cl)c(Cl)c2)cc1.[Na+]` [Example 1, (S)-Sodium; 3-[5-(3,4-dichloro-phenyl)-1-(4-methoxy-phenyl)-1H-pyrazol-3-yl]-2-m-tolyl-propionate] showed a melting point of 295.5 to 297.5 °C.
